In ChEMBL document CHEMBL1124907, “Synthesis and antiviral activity of some 3'-C-difluoromethyl and 3'-deoxy-3'-C-fluoromethyl nucleosides” (J Med Chem, 1990):
In brackets after ≈: the same amount, converted by molar mass.

Assays:
CV-1 = assay: Inhibitory effect on Varicella zoster virus in CV-1 cells; format: functional, cell-based, Cercopithecidae; settings: Chlorocebus aethiops
MT4 = assay: Inhibitory effect on human immunodeficiency virus type-1 (HIV-1) in MT-4 cells; format: functional; settings: read-out: ID50 (the source's name)

Structure (SMILES)	IC50 (CV-1)	IC50 (MT4)
O=c1[nH]c(=O)n(C2O[C@H](CO)[C@H](CF)[C@@H]2F)cc1I (some centres not stated)	5.3 µg/mL (≈ 13.7 µM)	
Cc1cn([C@H]2C[C@H](F)[C@@H](CO)O2)c(=O)[nH]c1=O [ALOVUDINE]		50 nM
